Assay results published in publication PMC4319531 (Bioorganic & medicinal chemistry letters, 2014).

Assays:
[1] = microsomes
recombinant CE-2 = target: T1, recombinant CE-2 (Homo sapiens, UniProt O00748); test: Incubation with purified recombinant CE-2; format: in vitro ADME; details: 10 μM, within 60 minutes at room temperature
T1 sequence (O00748 27-559): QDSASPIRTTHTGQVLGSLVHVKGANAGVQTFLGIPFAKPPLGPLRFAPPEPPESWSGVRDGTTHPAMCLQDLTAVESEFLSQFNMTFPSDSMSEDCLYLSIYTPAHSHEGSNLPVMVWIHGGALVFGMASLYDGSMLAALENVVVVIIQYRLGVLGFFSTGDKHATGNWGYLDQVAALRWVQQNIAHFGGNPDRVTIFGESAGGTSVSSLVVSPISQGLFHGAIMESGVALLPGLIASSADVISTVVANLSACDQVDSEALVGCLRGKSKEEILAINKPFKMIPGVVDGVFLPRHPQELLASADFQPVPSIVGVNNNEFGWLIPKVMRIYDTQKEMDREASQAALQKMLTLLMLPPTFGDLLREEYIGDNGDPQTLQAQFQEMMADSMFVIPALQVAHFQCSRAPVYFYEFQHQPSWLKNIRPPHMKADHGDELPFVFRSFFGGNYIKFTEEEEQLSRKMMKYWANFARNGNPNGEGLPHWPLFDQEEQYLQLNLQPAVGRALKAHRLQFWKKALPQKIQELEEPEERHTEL

[2] = Metabolic stability in human intestinal microsomes; details: both, pooled human intestinal microsomes, pH 7.4
recombinant CE-1 = target: T2, recombinant CE-1 (Homo sapiens, UniProt P23141); test: Incubation with purified recombinant CE-1; format: in vitro ADME; details: 10 μM, within 60 minutes at room temperature
T2 sequence (P23141 18-567): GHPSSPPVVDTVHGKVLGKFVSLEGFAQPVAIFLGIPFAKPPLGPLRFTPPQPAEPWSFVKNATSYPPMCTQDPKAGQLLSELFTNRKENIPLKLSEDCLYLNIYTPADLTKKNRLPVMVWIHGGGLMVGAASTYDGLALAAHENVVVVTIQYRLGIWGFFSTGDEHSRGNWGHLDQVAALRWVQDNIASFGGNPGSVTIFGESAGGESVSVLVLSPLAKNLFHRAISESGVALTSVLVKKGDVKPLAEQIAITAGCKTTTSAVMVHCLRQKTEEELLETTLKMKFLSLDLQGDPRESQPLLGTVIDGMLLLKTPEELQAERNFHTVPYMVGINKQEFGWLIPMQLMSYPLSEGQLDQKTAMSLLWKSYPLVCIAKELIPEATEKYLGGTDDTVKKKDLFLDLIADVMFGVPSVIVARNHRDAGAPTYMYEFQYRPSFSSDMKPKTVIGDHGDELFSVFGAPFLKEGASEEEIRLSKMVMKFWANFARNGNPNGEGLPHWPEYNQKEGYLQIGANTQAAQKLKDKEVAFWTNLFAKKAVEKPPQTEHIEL

[3] = Metabolic stability in human liver microsomes; details: both, pooled human liver microsomes, pH 7.4

Compound | sensitivity to hydrolysis by recombinant CE-2 (recombinant CE-2) | microsomal CLint at 1 μM [2] [µL/min/mg] | sensitivity to hydrolysis by recombinant CE-1 (recombinant CE-1) | other results
2-(4-(4((benzyl(2methyl3(methylsulfonamido)phenyl)amino)methyl)phenoxy)phenoxy)ethyl 2-isobutyl-5-((methoxycarbonyl)amino)pentanoate [Compound 8b] |  |  |  | half life (t1/2, min) HLM ([1]; human, pH 7.4): 17 min; CLint, in vitro HLM [1]: 82 µL/min/mg; CLint, in vitro HIM (microsomes): 220 µL/min/mg; half life (t1/2, min) HIM (pH 7.4): 6.3 min
COC(=O)NCCCC(C)(Cc1ccccc1)C(=O)Oc1ccc(Oc2ccc(CN(Cc3ccccc3)c3cccc(NS(C)(=O)=O)c3C)cc2)cc1 (stereo not drawn) [Compound 8f] | moderate to extensive hydrolysis | 43 | completely resistant | 
COC(=O)NCCCC(C)(C)C(=O)Oc1ccc(Oc2ccc(CN(Cc3ccccc3)c3cccc(NS(C)(=O)=O)c3C)cc2)cc1 [Compound 8e, 4-(4-((benzyl(2-methyl-3-(methylsulfonamido)phenyl)amino)methyl)phenoxy)phenyl 5-((methoxycarbonyl)amino)-2,2-dimethylpentanoate] |  | 1000 |  | 
COC(=O)NCCCC(Cc1cn(Cc2ccccc2)nn1)C(=O)OCCOc1ccc(Oc2ccc(CN(Cc3ccccc3)c3cccc(NS(C)(=O)=O)c3C)cc2)cc1 (stereo not drawn) [Compound 9g] | moderate to extensive hydrolysis |  | completely resistant | 
C#CCC(CCCNC(=O)OC)C(=O)OCCOc1ccc(Oc2ccc(CN(Cc3ccccc3)c3cccc(NS(C)(=O)=O)c3C)cc2)cc1 (stereo not drawn) [Compound 9c] | moderate to extensive hydrolysis | 1900 | completely resistant | 
COC(=O)NCCCC(Cc1ccccc1)C(=O)Oc1ccc(Oc2ccc(CN(Cc3ccccc3)c3cccc(NS(C)(=O)=O)c3C)cc2)cc1 (stereo not drawn) [Compound 8d] |  | 140 |  | 
COC(=O)NCCCC(C)C(=O)Oc1ccc(Oc2ccc(CN(Cc3ccccc3)c3cccc(NS(C)(=O)=O)c3C)cc2)cc1 (stereo not drawn) [Compound 8a, 4-(4-((benzyl(2-methyl-3-(methylsulfonamido)phenyl)amino)methyl)phenoxy)phenyl 5-((methoxycarbonyl)amino)-2-methylpentanoate] |  | 2600 |  | microsomal CLint at 1 μM [3]: 1000 µL/min/mg
C#CCC(CCCNC(=O)OC)C(=O)Oc1ccc(Oc2ccc(CN(Cc3ccccc3)c3cccc(NS(C)(=O)=O)c3C)cc2)cc1 (stereo not drawn) [Compound 8c] |  | 1700 |  | 
COC(=O)NCCCC(Cc1cn(Cc2ccccc2)nn1)C(=O)Oc1ccc(Oc2ccc(CN(Cc3ccccc3)c3cccc(NS(C)(=O)=O)c3C)cc2)cc1 (stereo not drawn) [Compound 8g, 4-(4-((benzyl(2-methyl-3-(methylsulfonamido)phenyl)amino)methyl)phenoxy)phenyl 2-((1-benzyl-1H-1,2,3-triazol-4-yl)methyl)-5-((methoxycarbonyl)amino)pentanoate] | moderate to extensive hydrolysis | 480 | completely resistant | microsomal CLint at 1 μM [3]: 140 µL/min/mg
